Reference: patent US8969516B2, “Method of hydrolysis of peptide bond” (priority 2006, dated 2015)

Assay: MALDI-TOF screening of Ni^2+ dependent hydrolysis in a combinatorial peptide library
Type: physicochemical
Conditions: CH3CO-Gly-Ala-Thr-X-His-Z-Lys-Phe-Leu-NH2 library, Ni^2+ 2 mM, pH 8.2, 10 mM Tris, score=24/tm
Procedure, shortened: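 MALDI-TOF read-out: appearance of Ser/Thr-X-His-Z-Lys-Phe-Leu-NH2 product signals, plus loss of substrate signals, checked by eye at 2, 4, 6, 8 h. Conditions: 1 mM peptide mixture, 2 mM Ni2+, 10 mM Tris pH 8.2, 37 or 45 °C.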

Substance	hydrolysis score from MALDI-TOF screening (37° C.)	hydrolysis score from MALDI-TOF screening (45° C.)
Ac-GATLHYKFL-NH2 [TLHY]	0 (a score of 0 if no trace of the product of hydrolysis was seen after 8 hours of incubation)	0 (a score of 0 if no trace of the product of hydrolysis was seen after 8 hours of incubation)
Ac-GATMHAKFL-NH2 [TMHA]	0 (a score of 0 if no trace of the product of hydrolysis was seen after 8 hours of incubation)	0 (a score of 0 if no trace of the product of hydrolysis was seen after 8 hours of incubation)
Ac-GATMHDKFL-NH2 [TMHD]	0 (a score of 0 if no trace of the product of hydrolysis was seen after 8 hours of incubation)	0 (a score of 0 if no trace of the product of hydrolysis was seen after 8 hours of incubation)
Ac-GATMHEKFL-NH2 [TMHE]	0 (a score of 0 if no trace of the product of hydrolysis was seen after 8 hours of incubation)	0 (a score of 0 if no trace of the product of hydrolysis was seen after 8 hours of incubation)
Ac-GATMHFKFL-NH2 [TMHF]	0 (a score of 0 if no trace of the product of hydrolysis was seen after 8 hours of incubation)	0 (a score of 0 if no trace of the product of hydrolysis was seen after 8 hours of incubation)
Ac-GATMHGKFL-NH2 [TMHG]	0 (a score of 0 if no trace of the product of hydrolysis was seen after 8 hours of incubation)	0 (a score of 0 if no trace of the product of hydrolysis was seen after 8 hours of incubation)
Ac-GATMHHKFL-NH2 [TMHH]	0 (a score of 0 if no trace of the product of hydrolysis was seen after 8 hours of incubation)	0 (a score of 0 if no trace of the product of hydrolysis was seen after 8 hours of incubation)
Ac-GATMHIKFL-NH2 [TMHI]	0 (a score of 0 if no trace of the product of hydrolysis was seen after 8 hours of incubation)	0 (a score of 0 if no trace of the product of hydrolysis was seen after 8 hours of incubation)
Ac-GATMHKKFL-NH2 [TMHK]	0 (a score of 0 if no trace of the product of hydrolysis was seen after 8 hours of incubation)	3 (a score of 3 for detection at 8 hours)
Ac-GATMHLKFL-NH2 [TMHL]	0 (a score of 0 if no trace of the product of hydrolysis was seen after 8 hours of incubation)	0 (a score of 0 if no trace of the product of hydrolysis was seen after 8 hours of incubation)
Ac-GATMHMKFL-NH2 [TMHM]	0 (a score of 0 if no trace of the product of hydrolysis was seen after 8 hours of incubation)	0 (a score of 0 if no trace of the product of hydrolysis was seen after 8 hours of incubation)
Ac-GATMHNKFL-NH2 [TMHN]	0 (a score of 0 if no trace of the product of hydrolysis was seen after 8 hours of incubation)	0 (a score of 0 if no trace of the product of hydrolysis was seen after 8 hours of incubation)
Ac-GATMHPKFL-NH2 [TMHP]	0 (a score of 0 if no trace of the product of hydrolysis was seen after 8 hours of incubation)	0 (a score of 0 if no trace of the product of hydrolysis was seen after 8 hours of incubation)
Ac-GATMHQKFL-NH2 [TMHQ]	0 (a score of 0 if no trace of the product of hydrolysis was seen after 8 hours of incubation)	0 (a score of 0 if no trace of the product of hydrolysis was seen after 8 hours of incubation)
Ac-GATMHSKFL-NH2 [TMHS]	0 (a score of 0 if no trace of the product of hydrolysis was seen after 8 hours of incubation)	0 (a score of 0 if no trace of the product of hydrolysis was seen after 8 hours of incubation)
